# Source: PubChem BioAssay (NCI)
#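 A five-concentration, 48-hour dose response in 96-well plates underlies each endpoint, interpolated linearly between surrounding concentrations. At the GI50, growth is halved. TGI is the concentration that stops growth completely.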
# Columns and labels:
# Experiment in all cases: DTP human tumour cell line panel, 48 h
# [1] = tested on: 786-0 renal
# [2] = tested on: A498 renal
# [3] = tested on: A549 NSCLC
# [4] = tested on: ACHN renal
# [5] = tested on: CAKI-1 renal
# [6] = tested on: CCRF-CEM leukemia
# [7] = tested on: COLO 205 colon
# [8] = tested on: DU-145 prostate
# [9] = tested on: EKVX NSCLC
# [10] = tested on: HCC-2998 colon
# [11] = tested on: HCT-116 colon
# [12] = tested on: HCT-15 colon
# [13] = tested on: HL-60(TB) leukemia
# [14] = tested on: HOP-62 NSCLC
# [15] = tested on: HS 578T breast
# [16] = tested on: HT29 colon
# [17] = tested on: IGROV1 ovarian
# [18] = tested on: K-562 leukemia
# [19] = tested on: KM12 colon
# [20] = tested on: LOX IMVI melanoma
# [21] = tested on: M14 melanoma
# [22] = tested on: MALME-3M melanoma
# [23] = tested on: MCF7 breast
# [24] = tested on: MDA-MB-231 breast
# [25] = tested on: MDA-MB-435
# [26] = tested on: MOLT-4 leukemia
# [27] = tested on: NCI-H226 lung
# [28] = tested on: NCI-H23 lung
# [29] = tested on: NCI-H460 lung
# [30] = tested on: NCI-H522 lung
# [31] = tested on: NCI/ADR-RES ovarian
# [32] = tested on: OVCAR-3 ovarian
# [33] = tested on: OVCAR-4 ovarian
# [34] = tested on: OVCAR-8 ovarian
# [35] = tested on: PC-3 prostate
# [36] = tested on: RPMI-8226 leukemia
# [37] = tested on: RXF 393 renal
# [38] = tested on: SF-268 CNS
# [39] = tested on: SF-295 CNS
# [40] = tested on: SF-539 CNS
# [41] = tested on: SK-MEL-2 melanoma
# [42] = tested on: SK-MEL-28 melanoma
# [43] = tested on: SK-MEL-5 melanoma
# [44] = tested on: SK-OV-3 ovarian
# [45] = tested on: SN12C renal
# [46] = tested on: SNB-19 CNS
# [47] = tested on: SNB-75 CNS
# [48] = tested on: SR leukemia
# [49] = tested on: SW-620 colon
# [50] = tested on: T-47D breast
# [51] = tested on: TK-10 renal
# [52] = tested on: U251 CNS
# [53] = tested on: UACC-257 melanoma
# [54] = tested on: UACC-62 melanoma
# [55] = tested on: UO-31 renal
# [56] = tested on: HOP-92 NSCLC
# [57] = tested on: BT-549 breast
# [58] = tested on: OVCAR-5 ovarian
structure (smiles),measurement,setting,value
NCCN1CC2CCC(CC2)C1,TGI,[1],> 10000 nM
same,TGI,[2],> 10000 nM
same,TGI,[3],> 10000 nM
same,TGI,[4],> 10000 nM
same,TGI,[5],> 10000 nM
same,TGI,[6],> 10000 nM
same,TGI,[7],> 10000 nM
same,TGI,[8],> 10000 nM
same,TGI,[9],> 10000 nM
same,TGI,[10],> 10000 nM
same,TGI,[11],> 10000 nM
same,TGI,[12],> 10000 nM
same,TGI,[13],> 10000 nM
same,TGI,[14],> 10000 nM
same,TGI,[15],> 10000 nM
same,TGI,[16],> 10000 nM
same,TGI,[17],> 10000 nM
same,TGI,[18],> 10000 nM
same,TGI,[19],> 10000 nM
same,TGI,[20],> 10000 nM
same,TGI,[21],> 10000 nM
same,TGI,[22],> 10000 nM
same,TGI,[23],> 10000 nM
same,TGI,[24],> 10000 nM
same,TGI,[25],> 10000 nM
same,TGI,[26],> 10000 nM
same,TGI,[27],> 10000 nM
same,TGI,[28],> 10000 nM
same,TGI,[29],> 10000 nM
same,TGI,[30],> 10000 nM
same,TGI,[31],> 10000 nM
same,TGI,[32],> 10000 nM
same,TGI,[33],> 10000 nM
same,TGI,[34],> 10000 nM
same,TGI,[35],> 10000 nM
same,TGI,[36],> 10000 nM
same,TGI,[37],> 10000 nM
same,TGI,[38],> 10000 nM
same,TGI,[39],> 10000 nM
same,TGI,[40],> 10000 nM
same,TGI,[41],> 10000 nM
same,TGI,[42],> 10000 nM
same,TGI,[43],> 10000 nM
same,TGI,[44],> 10000 nM
same,TGI,[45],> 10000 nM
same,TGI,[46],> 10000 nM
same,TGI,[47],> 10000 nM
same,TGI,[48],> 10000 nM
same,TGI,[49],> 10000 nM
same,TGI,[50],> 10000 nM
same,TGI,[51],> 10000 nM
same,TGI,[52],> 10000 nM
same,TGI,[53],> 10000 nM
same,TGI,[54],> 10000 nM
same,TGI,[55],> 10000 nM
c1ccc(Cn2c(-c3ccc(OC[C@H](C4CCNCC4)n4c(-c5ccccc5)nc5ccccc54)cc3)nc3ccccc32)cc1,GI50,[2],1480 nM
same,TGI,[2],2830 nM
same,GI50,[15],2000 nM
same,TGI,[15],4790 nM
same,GI50,[31],7740 nM
same,TGI,[31],> 80700 nM
same,GI50,[50],2190 nM
same,TGI,[50],4720 nM
same,GI50,[51],1630 nM
same,TGI,[51],3080 nM
COC(=O)C1=CC(NC(=O)OCc2ccccc2)C(C(=O)c2ccccc2)C[C@@H]1Sc1ccccc1 (stereo not given in full),TGI,[6],4990 nM
same,TGI,[13],3030 nM
same,TGI,[18],7720 nM
C=CCN1C(=O)CS/C1=N/NC(=O)C(O)(c1ccccc1)c1ccccc1,TGI,[1],> 10000 nM
same,TGI,[3],> 10000 nM
same,TGI,[4],> 10000 nM
same,TGI,[5],> 10000 nM
same,TGI,[6],> 10000 nM
same,TGI,[7],> 10000 nM
same,TGI,[13],> 10000 nM
same,TGI,[14],> 10000 nM
same,TGI,[56],> 10000 nM
same,TGI,[17],> 10000 nM
same,TGI,[18],> 10000 nM
same,TGI,[21],> 10000 nM
same,TGI,[22],> 10000 nM
same,TGI,[23],> 10000 nM
same,TGI,[25],> 10000 nM
same,TGI,[26],> 10000 nM
same,TGI,[28],> 10000 nM
same,TGI,[29],> 10000 nM
same,TGI,[31],> 10000 nM
same,TGI,[33],> 10000 nM
same,TGI,[36],> 10000 nM
same,TGI,[37],> 10000 nM
same,TGI,[38],> 10000 nM
same,TGI,[41],> 10000 nM
same,TGI,[42],> 10000 nM
same,TGI,[43],> 10000 nM
same,TGI,[44],> 10000 nM
same,TGI,[47],> 10000 nM
same,TGI,[48],> 10000 nM
same,TGI,[49],> 10000 nM
same,TGI,[50],> 10000 nM
same,TGI,[52],> 10000 nM
same,TGI,[54],> 10000 nM
CC1=C[S+](c2ccccc2)c2cccc3cc4ccccc4c1c23 (stereo not given),GI50,[1],379 nM
same,GI50,[2],1080 nM
same,TGI,[2],5390 nM
same,GI50,[3],309 nM
same,TGI,[3],3590 nM
same,GI50,[4],734 nM
same,TGI,[4],14400 nM
same,GI50,[57],216 nM
same,TGI,[57],717 nM
same,GI50,[5],815 nM
same,TGI,[5],8020 nM
same,GI50,[6],265 nM
same,GI50,[7],147 nM
same,TGI,[7],314 nM
same,GI50,[8],515 nM
same,TGI,[8],2130 nM
same,GI50,[9],333 nM
same,TGI,[9],4990 nM
same,GI50,[10],406 nM
same,TGI,[10],1580 nM
same,GI50,[11],65.5 nM
same,GI50,[12],378 nM
same,TGI,[12],8440 nM
same,GI50,[13],173 nM
same,TGI,[13],1030 nM
same,GI50,[14],486 nM
same,GI50,[56],506 nM
same,TGI,[56],2430 nM
same,GI50,[15],385 nM
same,TGI,[15],14800 nM
same,GI50,[16],348 nM
same,TGI,[16],2120 nM
same,GI50,[17],467 nM
same,TGI,[17],3110 nM
same,GI50,[18],71.2 nM
same,TGI,[18],3850 nM
same,GI50,[19],109 nM
same,TGI,[19],1210 nM
same,GI50,[20],697 nM
same,TGI,[20],2230 nM
same,GI50,[21],189 nM
same,GI50,[22],372 nM
same,TGI,[22],2220 nM
same,GI50,[24],1690 nM
same,TGI,[24],4480 nM
same,GI50,[25],276 nM
same,TGI,[25],1610 nM
same,GI50,[26],572 nM
same,TGI,[26],9260 nM
same,GI50,[27],1260 nM
same,TGI,[27],7470 nM
same,GI50,[28],1090 nM
same,TGI,[28],2860 nM
same,GI50,[29],349 nM
same,TGI,[29],2370 nM
same,GI50,[30],297 nM
same,TGI,[30],1570 nM
same,GI50,[31],3870 nM
same,TGI,[31],> 55300 nM
same,GI50,[32],323 nM
same,TGI,[32],1440 nM
same,GI50,[33],773 nM
same,TGI,[33],2440 nM
same,GI50,[58],1110 nM
same,TGI,[58],2520 nM
same,GI50,[34],158 nM
same,TGI,[34],3730 nM
same,GI50,[35],247 nM
same,TGI,[35],12100 nM
same,GI50,[36],37.9 nM
same,TGI,[36],862 nM
same,GI50,[37],618 nM
same,TGI,[37],2050 nM
same,GI50,[38],237 nM
same,TGI,[38],1760 nM
same,GI50,[39],111 nM
same,TGI,[39],584 nM
same,GI50,[40],350 nM
same,TGI,[40],1280 nM
same,GI50,[41],1520 nM
same,TGI,[41],8550 nM
same,GI50,[42],511 nM
same,TGI,[42],1890 nM
same,GI50,[43],247 nM
same,TGI,[43],776 nM
same,GI50,[44],2410 nM
same,TGI,[44],14900 nM
same,GI50,[45],172 nM
same,TGI,[45],1250 nM
same,GI50,[46],350 nM
same,TGI,[46],1500 nM
same,GI50,[47],452 nM
same,TGI,[47],1550 nM
same,GI50,[48],297 nM
same,TGI,[48],2140 nM
same,GI50,[49],321 nM
same,TGI,[49],1650 nM
same,GI50,[50],217 nM
same,TGI,[50],1250 nM
same,GI50,[51],604 nM
same,TGI,[51],2380 nM
same,GI50,[52],45.8 nM
same,TGI,[52],337 nM
same,GI50,[53],315 nM
same,TGI,[53],1680 nM
same,GI50,[54],305 nM
same,TGI,[54],1640 nM
same,GI50,[55],312 nM
same,TGI,[55],7640 nM
